Assay [1] addresses skeletal muscle myosin-supported prothrombin activation by factors Xa and Va (Homo sapiens, UniProt P00742). The assay is described as follows: Assay 1A: prothrombin activation by factor Xa/factor Va/myosin in purified system. In kind it is biochemical, human factors Xa and Va; rabbit skeletal muscle myosin. The following applies: FIG. 5; read-out: IC50, prothrombin activation by factor Xa/factor Va/myosin in purified system.

Assay [2] relates to skeletal muscle myosin-supported prothrombin activation by factors Xa and Va. Described as above. In kind it is biochemical, human factors Xa and Va; rabbit skeletal muscle myosin.
The target in assay [3] is phospholipid-supported prothrombin activation by factors Xa and Va (Homo sapiens, UniProt P00742). Put plainly: Assay 1C: phospholipid vesicle (PC/PS 80%/20%)-supported prothrombin activation. It is filed as biochemical.
Assay [4] has as its system thrombin generation in human platelet poor plasma with skeletal muscle myosin. The assay is described as follows: Assay 2A: thrombin generation, recalcification of human platelet poor plasma + myosin. In kind it is biochemical. The following applies: human plasma, recalcification, myosin present; read-out: 2A (recalcification +myosin) IC50. In a few lines: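 Pooled normal human platelet-poor plasma (30%) preincubated 5 min at 37° C with 50 nM skeletal muscle myosin and peptide in DMSO. Coagulation triggered with 10 mmol/L CaCl2 plus fluorogenic Z-Gly-Gly-Arg-AMC; thrombin generation followed 25 min (ex 360/em 460 nm). IC50 = peptide concentration giving 50% inhibition of thrombin generation.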

Assay [5] has as its system thrombin generation in human whole blood. The assay is described as follows: Assay 4: thrombin generation in recalcified human whole blood. It is filed as biochemical. The note with it: recalcification. Here is the method:
In addition to purified protein system and human plasma, assays using whole blood (Assay 4) were also performed to examine anti-coagulant activities of the peptides and derivative compounds. In these assays, freshly drawn anticoagulated human whole blood (80 μL aliquot) was incubated with peptide in DMSO or DMSO alone (control) for 5 min at 37° C. Then, fluorogenic thrombin substrate solution (Z-Gly-Gly-Arg-AMC) (I-1140) with 10 mmol/L CaCl2 (final) alone was added to the reaction mixture (total 110 μl) in 96 well plate to initiate coagulation. Thrombin generation was followed continuously for 25 min using SPECTRAmax GEMINI XS fluorometer (Molecular Devices, Sunnyvale, Calif.) with excitation and emission wavelengths set at 360 and 460 nm, respectively. The first derivative of fluorescence versus time was used to produce thrombin generation curves with the correction for substrate consumption and inner filter effect. IC50 were determined using a curve fit program in Prism7.0 (GraphPad Software, San Diego, Calif.).

Another assay addresses factor Xa (Homo sapiens, UniProt P00742). Put plainly: Factor Xa peptide binding assay (immobilized peptide). The following applies: FIG. 2C; read-out: apparent Kd, factor Xa binding to immobilized peptide. As to the method:
Factor Xa Peptide Binding Assays: Peptide HC796-835 at 10 μg/mL in sodium bicarbonate (pH 9.3) was coated onto the wells of microtiter plates and then blocked with 5% fatty acid free BSA in TBS. After washing the plate with TBSA containing 5 mM CaCl2, various concentrations of factor Xa in binding buffer consisting of TBSA containing 5 mM CaCl2 were incubated in plate wells for 1 h at room temperature. Following 3 washings, bound factor Xa was detected by adding chromogenic substrate for factor Xa (S2222, Chromogenix, Franklin, Ohio). The absorbance values observed for triplicate noncoated wells lacking peptides served as nonspecific controls for binding and were subtracted from observed values for corresponding duplicate peptide-coated wells. Nonspecific binding of Factor Xa ranged from 5 to 20% of total observed binding in various experiments.
Statistical analysis: Apparent Kd values using saturation binding curve fit were performed using Prism™ 7.0 software (Graph Pad Software Inc., San Diego, Calif.).

In assay [6] the test system is thrombin generation in human plasma. The assay is described as follows: Thrombin generation assay in pooled normal human plasma (Examples 3 and 4). It is filed as biochemical. As to the method:
Thrombin generation assay in pooled human plasma: The effect of synthetic peptides on thrombin generation in pooled normal human plasma (George King Bio-medical, Inc., Overland Park, KS) was tested as described (1,11). Briefly, normal human plasma (30 μl) was mixed with CTI, followed by the addition of peptide. Then, tissue factor (TF) (Innovin) (0.5[…] pM final) containing 30 mM Ca^++ in TBSA with fluorogenic thrombin substrate solution (I-1140) (Bachem Americas, Inc., Torrance, Calif.) were added to the plasma to initiate coagulation activation. The first derivative of the time course data for substrate hydrolysis yielded the thrombin generation curve, allowing measurement of thrombin generation during the initiation, propagation and termination phases of thrombin generation and the value for peak thrombin generated.

Assay [7] has as its target T1, cardiac myosin-enhanced prothrombin activation by factors Xa and Va (Homo sapiens, UniProt P00742).
T1 construct: factor Va (5 nM, final) and factor Xa (0.2 nM, final)
The assay is described as follows: Cardiac myosin-enhanced prothrombin activation. It is filed as biochemical. The note with it: peptide 0 to 12.5 μM, cardiac myosin 2 nM, FIG. 17. Here is the method: Varying concentrations of peptide HC796-835 (SEQ ID NO:21), ranging from 0 to 12.5 μM, were incubated with factor Va (5 nM, final) and factor Xa (0.2 nM, final) in Tris buffered saline containing bovine serum albumin (TBSA) plus 5 mM CaCl2 at room temperature in the presence of cardiac myosin (2 nM, final). Thrombin generation was initiated by the addition of prothrombin (0.75 μM) in TB SA containing 5 mM CaCl2. The reaction was quenched by adding EDTA (10 mM final) at 10 min. The rate of thrombin formation was quantified by measuring thrombin concentration as the rate of thrombin substrate hydrolysis. 100% was the value for controls in the absence of added peptides. Each value represents the mean [±SEM] of triplicate determinations.

Residues, ends and D or L forms follow the SMILES beside them.

Sequence of phospholipid-supported prothrombin activation by factors Xa and Va (P00742 41-179 limits assumed): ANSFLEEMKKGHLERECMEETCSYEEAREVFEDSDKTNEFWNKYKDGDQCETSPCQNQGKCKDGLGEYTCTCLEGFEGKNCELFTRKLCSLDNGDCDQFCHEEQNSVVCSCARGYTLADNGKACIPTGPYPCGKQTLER
Sequence of phospholipid-supported prothrombin activation by factors Xa and Va (P00742 235-488 limits assumed): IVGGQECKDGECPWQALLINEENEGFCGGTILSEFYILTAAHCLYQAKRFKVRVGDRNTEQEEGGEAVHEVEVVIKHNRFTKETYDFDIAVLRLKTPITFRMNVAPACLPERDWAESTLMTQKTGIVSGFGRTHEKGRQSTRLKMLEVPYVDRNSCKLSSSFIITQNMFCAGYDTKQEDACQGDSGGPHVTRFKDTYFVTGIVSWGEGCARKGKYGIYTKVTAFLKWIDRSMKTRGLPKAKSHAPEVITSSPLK
Sequence of skeletal muscle myosin-supported prothrombin activation by factors Xa and Va (Homo sapiens, UniProt P00742) (P00742 41-179): as the sequence (P00742 41-179 limits assumed) above
Sequence of skeletal muscle myosin-supported prothrombin activation by factors Xa and Va (Homo sapiens, UniProt P00742) (P00742 235-488): as the sequence (P00742 235-488 limits assumed) above
Sequence of skeletal muscle myosin-supported prothrombin activation by factors Xa and Va (Homo sapiens, UniProt P00742) (P12259 29-737 partner): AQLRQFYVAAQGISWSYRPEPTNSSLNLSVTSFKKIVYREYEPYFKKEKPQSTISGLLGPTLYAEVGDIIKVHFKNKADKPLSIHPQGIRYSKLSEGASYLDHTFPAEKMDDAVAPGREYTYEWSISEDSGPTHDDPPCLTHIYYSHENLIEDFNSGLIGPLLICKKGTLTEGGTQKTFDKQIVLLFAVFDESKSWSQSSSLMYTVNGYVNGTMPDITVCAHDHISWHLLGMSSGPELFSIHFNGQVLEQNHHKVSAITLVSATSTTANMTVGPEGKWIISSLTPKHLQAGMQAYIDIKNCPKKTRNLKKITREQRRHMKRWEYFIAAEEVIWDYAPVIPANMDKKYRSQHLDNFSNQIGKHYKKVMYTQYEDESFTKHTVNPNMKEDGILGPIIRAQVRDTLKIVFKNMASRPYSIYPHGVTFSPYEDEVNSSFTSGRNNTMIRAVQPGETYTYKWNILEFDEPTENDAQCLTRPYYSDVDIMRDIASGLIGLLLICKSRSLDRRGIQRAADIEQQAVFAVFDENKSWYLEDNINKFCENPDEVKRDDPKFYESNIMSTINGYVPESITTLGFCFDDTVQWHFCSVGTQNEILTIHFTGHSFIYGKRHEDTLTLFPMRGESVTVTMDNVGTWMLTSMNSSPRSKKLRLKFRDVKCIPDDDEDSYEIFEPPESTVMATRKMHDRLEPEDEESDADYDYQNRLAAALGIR
Sequence of skeletal muscle myosin-supported prothrombin activation by factors Xa and Va (Homo sapiens, UniProt P00742) (P12259 1574-2224 partner): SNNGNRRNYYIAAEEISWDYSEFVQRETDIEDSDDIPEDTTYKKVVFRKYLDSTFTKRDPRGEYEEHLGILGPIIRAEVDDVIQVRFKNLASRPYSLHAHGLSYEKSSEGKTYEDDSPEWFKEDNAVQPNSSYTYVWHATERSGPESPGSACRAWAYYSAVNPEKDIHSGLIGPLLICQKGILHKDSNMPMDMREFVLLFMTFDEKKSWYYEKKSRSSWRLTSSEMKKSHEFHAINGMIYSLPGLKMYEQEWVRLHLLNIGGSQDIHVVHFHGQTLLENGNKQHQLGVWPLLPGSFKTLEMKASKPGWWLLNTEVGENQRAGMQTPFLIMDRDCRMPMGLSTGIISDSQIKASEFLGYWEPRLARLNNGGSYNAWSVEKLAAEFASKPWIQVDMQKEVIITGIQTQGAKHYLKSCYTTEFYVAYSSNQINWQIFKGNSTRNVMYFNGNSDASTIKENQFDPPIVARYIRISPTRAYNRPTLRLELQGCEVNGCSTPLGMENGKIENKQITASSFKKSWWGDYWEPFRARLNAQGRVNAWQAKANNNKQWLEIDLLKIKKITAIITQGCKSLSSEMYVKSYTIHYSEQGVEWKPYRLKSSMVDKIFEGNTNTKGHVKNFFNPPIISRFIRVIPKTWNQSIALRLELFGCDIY
T1 sequence (P00742 41-179 limits assumed): as the sequence (P00742 41-179 limits assumed) above
T1 sequence (P00742 235-488 limits assumed): as the sequence (P00742 235-488 limits assumed) above

Consider `CC[C@H](C)[C@H](NC(=O)[C@H](C)NC(=O)[C@H](CCC(=O)O)NC(=O)[C@H](CCCNC(=N)N)NC(=O)[C@H](CCCNC(=N)N)NC(=O)[C@H](CCC(=O)O)NC(=O)[C@@H](NC(=O)[C@H](CCSC)NC(=O)[C@H](CCCNC(=N)N)NC(=O)[C@H](CCC(N)=O)NC(=O)[C@H](Cc1ccc(O)cc1)NC(=O)[C@H](CCC(=O)O)NC(=O)[C@@H](NC(=O)[C@H](CCCNC(=N)N)NC(=O)[C@H](C)NC(=O)[C@H](CC(C)C)NC(=O)[C@H](Cc1ccccc1)NC(=O)CNC(=O)[C@H](CCCNC(=N)N)NC(=O)[C@H](CS)NC(=O)[C@H](CCCNC(=N)N)NC(=O)[C@H](C)N)C(C)C)C(C)C)C(=O)N[C@@H](Cc1ccccc1)C(=O)N[C@@H](CS)C(=O)N[C@H](C(=O)N[C@@H](CCC(N)=O)C(=O)N[C@@H](Cc1ccc(O)cc1)C(=O)N[C@@H](CC(N)=O)C(=O)N[C@H](C(=O)N[C@@H](CCCNC(=N)N)C(=O)N[C@@H](CO)C(=O)N[C@@H](Cc1ccccc1)C(=O)N[C@@H](CCSC)C(=O)N[C@@H](CC(N)=O)C(=O)N[C@H](C(=O)N[C@@H](CCCCN)C(=O)N[C@@H](Cc1c[nH]cn1)C(=O)N[C@@H](Cc1c[nH]c2ccccc12)C(=O)N1CCC[C@H]1C(=O)N[C@@H](Cc1c[nH]c2ccccc12)C(N)=O)C(C)C)[C@@H](C)CC)[C@@H](C)CC` [HC796-835] (H-ARCRGFLARVEYQRMVERREAIFCIQYNIRSFMNVKHWPW-NH2), for which the IC50 in assay [1] is 1300 nM; in assay [2] (dose-dependency assays, FIG. 2A, myosin 2 nM, read-out: IC50, inhibition of myosin-supported prothrombin activation) it was 1200 nM; in assay [4], 3800 nM; in assay [6] (FIG. 3B, peptide 0-25 μM, read-out: IC50, inhibition of thrombin generation in plasma), around 5500 nM. In addition, the “inhibition of myosin-supported prothrombin activation at 5 μM” value in assay [2] (peptide 5 μM, FIG. 1A) is given as “inhibitory, to varying degrees”. Further, the “inhibition of myosin-supported prothrombin activation at 100 μM” value in assay [2] (peptide 100 μM, FIG. 1A) is given as “inhibited”. The “inhibitory effects on phospholipid-supported prothrombin activation” value in assay [3] (compared with effects on myosin-supported prothrombin activation) is listed as “not apparent”. Moreover, the “1C (+phospholipid)” value in assay [3] (purified system, phospholipid vesicles) was “No activity”. For the same compound, the “4 (recalcification) IC50” value in assay [5] was “No activity”. Besides, the Kd at factor Xa was 1400 nM. In addition, the “inhibition of thrombin generation in human plasma” value in assay [6] (screened at 25 μM, FIG. 3A) is on record as “significantly inhibited”. Moreover, in assay [7], the “inhibition of cardiac myosin-enhanced prothrombin activation” value was “inhibition”.

Source of the values: patent US20220340629A1, “Myosin Derived Peptides and Related Compounds with Anticoagulant Activities” (THE SCRIPPS RESEARCH INSTITUTE, priority 0001, published 2022).
